{
  "source": "patent US20120064154A1",
  "about": "“SOLID DRUG FOR ORAL USE” (KISSEI PHARMACEUTICAL CO., LTD., priority 2002, published 2012)",
  "key": {"Stability of KMD-3213": {"assay": "Stability of KMD-3213", "type": "physicochemical"}, "Solubility of KMD-3213": {"assay": "Solubility of KMD-3213", "type": "physicochemical"}},
  "data": [
    {"smiles": "C[C@H](Cc1cc2c(c(C(N)=O)c1)N(CCCO)CC2)NCCOc1ccccc1OCC(F)(F)F", "note": "[KMD-3213]", "values": [
      {"measurement": "stability", "setting": "Stability of KMD-3213; against a light exposure", "value": "relatively unstable"},
      {"measurement": "stability", "setting": "Stability of KMD-3213; in acidic conditions", "value": "stable"},
      {"measurement": "solubility", "setting": "Solubility of KMD-3213; in a neutral medium such as water", "value": "hardly soluble"},
      {"measurement": "solubility", "setting": "Solubility of KMD-3213; in an acidic medium", "value": "relatively a high solubility"}
    ]}
  ]
}
